Columns and labels:
L-FABP [1] = target: T1, L-FABP (Homo sapiens, UniProt P07148); details: cited from earlier work
T1 sequence (P07148 1-127): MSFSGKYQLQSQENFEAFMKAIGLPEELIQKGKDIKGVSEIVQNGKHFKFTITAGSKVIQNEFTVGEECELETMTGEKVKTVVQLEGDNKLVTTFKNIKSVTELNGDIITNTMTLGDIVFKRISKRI

control mice = assay: PPARα agonist GW-7647 feeding, hepatic mRNA, control mice; format: in vivo; details: 2.5 mg/kg/d in chow, 7 weeks
Description: (§1) Animal Studies. Male PPARα−/− mice and age matched WT littermates (on SV/129 background) were fed a standard chow diet, supplemented with either the PPARα agonist GW-7647 (2.5 mg/kg/d) or equivalent amount of solvent vehicle (DMSO), for 7 weeks. All animals had ad libitum access to water. Mice were weighed every 2 weeks and drug intake was adjusted according to mean weight. Upon end of treatment animals were sacrificed, liver was isolated, and total RNA was extracted using Versagene RNA Tissue Kit (Gentra Systems, Inc.). First-Strand cDNA synthesis and Real Time PCR expression analyses were performed as described above.

PPARα−/− mice = assay: PPARα agonist GW-7647 feeding, hepatic mRNA, PPARα−/− mice; format: in vivo; details: 2.5 mg/kg/d in chow, 7 weeks
Description: as §1

L-FABP [2] = target: T1, L-FABP; assay: 1,8-ANS binding to FABP (direct binding isotherms)
Excerpt: The pharmaceutical compound may be formulated using any small molecule that is capable of inhibiting L-FABP and which is pharmaceutically acceptable. One non-limiting example of a suitable L-FABP inhibitor is 3-(decyldimethylsilyl)-N-[2-(4-methylphenyl)-1-phenylethyl]propanamide (Sandoz compound 58-035) (lot #fr. 09061988), In some embodiments, such L-FABP inhibitors are identified using a screening assay. […] Suitable in vitro assays for testing L-FABP include, but are not limited to a high throughput L-FABP assay based on the 1,8-ANS binding assay (see: Kane, C. D., and Bernlohr, D. A. 1996, A simple assay for intracellular lipid-binding proteins using displacement of 1-anilinonaphthalene 8-sulfonic acid. Anal Biochem 233:197-204.) In this assay, recombinant L-FABP is incubated with a fluorescent surrogate ligand, 1-anilinonapthalene 8-sulfonic acid (ANS) and allowed to come to equilibrium. 1,8-ANS is non-fluorescent in solution but is highly fluorescent when bound in the hydrophobic, lipid-binding pocket of the fatty acid binding proteins. […] Chemical compounds in pools of 5 were added to each well and the fluorescence re-measured. […] In tertiary screens, the primary targets will be titrated into the FABP bound with 1,8-ANS and the displacement quantitated as a function of ligand concentration.

PPARα = target: T2, PPARα (rat, UniProt P37230 1-468); assay: inferred from EMSA supershift of the same FAO-specific DNA-protein complex with anti-RXRα and anti-PPARα antibodies
T2 construct: Nuclear receptor; It was present in a crude nuclear extract, not purified; also called PPAR alpha
T2 sequence (looked up): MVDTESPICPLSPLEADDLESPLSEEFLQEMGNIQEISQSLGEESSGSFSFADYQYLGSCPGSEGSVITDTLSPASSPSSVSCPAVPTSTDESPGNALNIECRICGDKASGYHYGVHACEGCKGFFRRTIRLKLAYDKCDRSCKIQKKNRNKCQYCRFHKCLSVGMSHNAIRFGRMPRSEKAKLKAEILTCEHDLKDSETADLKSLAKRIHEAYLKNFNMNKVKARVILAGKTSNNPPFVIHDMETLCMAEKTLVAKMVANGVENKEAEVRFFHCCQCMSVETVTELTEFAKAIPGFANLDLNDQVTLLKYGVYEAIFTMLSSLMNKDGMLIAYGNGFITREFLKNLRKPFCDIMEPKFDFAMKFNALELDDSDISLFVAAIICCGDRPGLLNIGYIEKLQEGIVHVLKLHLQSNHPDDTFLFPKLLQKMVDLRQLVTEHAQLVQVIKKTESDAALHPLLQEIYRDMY
Description: The probes were prepared by annealing the complementary oligonucleotides and by end labeling with [γ-³²P]ATP ([…]), PerkinElmer Life Sciences) using T4 polynucleotide kinase (New England Biolabs), followed by purification on a G50 column. For binding reactions, 15 μg of nuclear extracts were incubated with 3×10^4 cpm probe on ice for 20 min in a total volume of 15 μl of solution (20 mM HEPES, pH7.9 at 4° C., 10% glycerol, 100 mM KCl, 1 mM EDTA, and 2 μg poly(dI-dC). For supershift experiments, 1 μl of specific antibodies were added to preincubated DNA-protein complexes for an additional 20 min on ice. Antibodies against COUP-TFII (sc-6576X), RXRα (sc-553X), and PPARα (sc-9000X) were obtained from Santa Cruz Biotechnology, Inc. DNA-protein complexes were resolved on 4% native polyacrylamide gel electrophoresis containing 0.5×TBE buffer.
PPARα-RXRα heterodimers compete with COUP-TFII for binding to the DR1 promoter elements of both the MTP and L-FABP genes. […] In contrast, PPARα-RXRα supershifts were not detected with the nuclear extracts obtained from L35 cells ((4)). These Findings indicate that in FAO cells, the DR1 sites of both the L-FABP and MTP promoters are occupied by PPARα-RXRα heterodimers while these same sites are occupied by a COUP-TFII complex in L35 cells.

CCCCCCCCCC[Si](C)(C)CCC(=O)NC(Cc1ccc(C)cc1)c1ccccc1 (stereo not shown) [Sandoz compound 58-035, 3-(decyldimethylsilyl)-N-[2-(4-methylphenyl)-1-phenylethyl]propanamide]
inhibition of L-FABP (L-FABP [1]): inhibit L-FABP

CC(C)(Sc1ccc(CCN(CCCCC2CCCCC2)C(=O)NC2CCCCC2)cc1)C(=O)O [GW-7647]
hepatic L-FABP mRNA level (control mice): increased levels
hepatic MTP mRNA level (control mice): increased levels
hepatic L-FABP expression level (PPARα−/− mice): no significant changes
hepatic MTP expression level (PPARα−/− mice): no significant changes

O=S(=O)(O)c1cccc2cccc(Nc3ccccc3)c12 [1,8-ANS, 1-anilinonapthalene 8-sulfonic acid]
Kd (L-FABP [2]): 1500 nM

B1: RXRα (receptor, rat, UniProt Q05343 1-467, looked up)
chain: MDTKHFLPLDFSTQVNSSSLSSPTGRGSMAAPSLHPSLGPGLGSPLGSPGQLHSPISTLSSPINGMGPPFSVISSPMGPHSMSVPTTPTLGFETGSPQLNSPMNPVSSSEDIKPPLGLNGVLKVPAHPSGNMSSFTKHICAICGDRSSGKHYGVYSCEGCKGFFKRTVRKDLTYTCRDNKDCLIDKRQRNRCQYCRYQKCLAMGMKREAVQEERQRGKDRNENEVESTSSANEDMPVEKILEAELAVEPKTETYVEANMGLNPSSPNDPVTNICQAADKQLFTLVEWAKRIPHFSELPLDDQVILLRAGWNELLIASFSHRSIAVKDGILLATGLHVHRNSAHSAGVGAIFDRVLTELVSKMRDMQMDKTELGCLRAIVLFNPDSKGLSNPAEVEALREKVYASLEAYCKHKYPEQPGRFAKLLLRLPALRSIGLKCLEHLFFFKLIGDTPIDTFLMEMLEAPHQTT
notes: Nuclear receptor; It was present in a crude nuclear extract, not purified; also called RXR alpha
binding result (PPARα): binds
